Experimental data as given in patent EP1808172A2, “Botanical extract compositions and methods of use” (The Medical Research and Education Trust, priority 2002, dated 2003).

Legend:
Assay type in all cases: cell-based
LNCaP cell cycle = assay: Cell cycle measurement by DNA content flow cytometry, LNCaP; conditions: LNCaP cells, exposed 24-48 hours
Experimental: (§1) The cells were washed with phosphate buffered saline (PBS) and fixed in ice-cold 70% ethanol. Aliquots of fixed cells were rehydrated in PBS and stained with 1.0 microgram/milliliter DAPI (4,6-diamidino-2-phenylindole from Eastman Kodak, Rochester, NY), and dissolved in 10 millimolar piperazine-NN-bis-2-ethane-sulfonic acid buffer (Calbiochem, La Jolla, CA) containing 100 millimolar NaCl, 2mM MgCl2 and 0,1% Triton X-100 (Sigma) at pH 6.8 as previously described by Halicka et al. (H. D. Halicka, B. Ardelt, G. Juan, A. Mittelman, S. Chen, F. Traganos and Z. Darzynkiewicz, "Apoptosis and Cell Cycle Effects Induced by Extracts of the Chinese Herbal Preparation of PC SPES", International J. of Oncology (1997), 11: 437-448).
(§2) The cellular DNA content was measured with an ELITE ESP flow cytometer (Coulter Inc., Fl.) using UV laser illumination. The multicycle program was used to deconvolute the DNA frequency histograms to estimate the frequency of cells in different phases of the cell cycle.

DU-145 cell cycle = assay: Cell cycle measurement by DNA content flow cytometry, DU-145; conditions: DU-145 cells, protocol of Example 3
Experimental: as §1, §2
A prolongation in the G2M phase leads to the suppression of DU-145 cell proliferation.

hERα = target: T1, hERα (Homo sapiens, UniProt P03372); assay: ERE-LUC reporter gene activation in transfected HEK 293 cells, ER alpha; conditions: 0 to 9 µg/ml, 20 hours
T1 construct: expressed in transfected cells; host or cells: HEK 293 cells (ATCC CRL-1573)
T1 sequence (P03372 whole entry): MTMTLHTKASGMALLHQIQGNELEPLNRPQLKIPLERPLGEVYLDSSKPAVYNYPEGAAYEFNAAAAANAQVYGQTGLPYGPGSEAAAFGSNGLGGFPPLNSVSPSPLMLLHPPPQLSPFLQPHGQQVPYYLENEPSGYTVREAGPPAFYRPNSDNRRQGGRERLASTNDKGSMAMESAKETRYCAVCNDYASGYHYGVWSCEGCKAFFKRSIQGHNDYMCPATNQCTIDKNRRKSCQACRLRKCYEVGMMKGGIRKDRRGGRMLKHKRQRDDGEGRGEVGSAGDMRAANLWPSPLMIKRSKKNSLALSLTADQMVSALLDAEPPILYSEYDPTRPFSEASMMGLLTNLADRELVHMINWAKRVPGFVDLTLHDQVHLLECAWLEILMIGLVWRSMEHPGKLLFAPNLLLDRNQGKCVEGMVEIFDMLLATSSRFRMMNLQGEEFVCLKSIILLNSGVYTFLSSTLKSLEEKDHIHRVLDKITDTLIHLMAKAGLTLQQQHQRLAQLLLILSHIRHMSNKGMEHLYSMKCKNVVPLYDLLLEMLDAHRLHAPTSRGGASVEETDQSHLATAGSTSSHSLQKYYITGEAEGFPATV
Excerpt: (§3) HEK 293 cells (ATCC CRL-1573) were transfected with an expression vector for hERα and hERβ respectively, and an ERE-LUC reporter gene (plus a TK-LUC reporter for normalization) following the protocol of Yoon et al ("Differential activation of wild-type and variant forms of estrogen receptor α by synthetic and natural estrogenic compounds using a promoter containing three estrogen-responsive elements", J. Steroid Biochem. & Molecular Biology (2000), 28: pages 25-32).

hERβ = target: T2, hERβ (Homo sapiens, UniProt Q92731); assay: ERE-LUC reporter gene activation in transfected HEK 293 cells, ER beta; conditions: 0 to 9 µg/ml, 20 hours
T2 construct: expressed in transfected cells; host or cells: HEK 293 cells (ATCC CRL-1573)
T2 sequence (Q92731 whole entry): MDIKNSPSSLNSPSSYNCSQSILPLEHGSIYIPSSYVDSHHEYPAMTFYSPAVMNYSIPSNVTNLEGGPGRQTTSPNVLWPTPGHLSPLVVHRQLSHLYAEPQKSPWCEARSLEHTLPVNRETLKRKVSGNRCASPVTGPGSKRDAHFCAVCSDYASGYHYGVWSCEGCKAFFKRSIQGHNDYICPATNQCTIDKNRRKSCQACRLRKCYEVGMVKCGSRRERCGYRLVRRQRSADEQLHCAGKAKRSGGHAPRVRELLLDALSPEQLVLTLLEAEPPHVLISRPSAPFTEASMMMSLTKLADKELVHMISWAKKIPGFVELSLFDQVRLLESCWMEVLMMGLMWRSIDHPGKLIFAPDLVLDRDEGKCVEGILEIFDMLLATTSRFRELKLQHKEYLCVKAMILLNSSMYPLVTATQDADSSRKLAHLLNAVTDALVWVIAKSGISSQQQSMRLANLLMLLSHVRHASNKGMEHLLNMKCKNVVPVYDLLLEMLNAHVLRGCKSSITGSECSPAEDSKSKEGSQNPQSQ
Excerpt: as §3

Compound	effect on G1, S, and G2M phases of the LNCaP cell cycle (LNCaP cell cycle)	effect on the DU-145 cell cycle (DU-145 cell cycle)	ERα-Luc reporter gene activation (hERα)	ERβ-Luc reporter gene activation (hERβ)
COc1c(O)cc(O)c2c(=O)cc(-c3ccccc3)oc12 [Wogonin, 5,7-dihydroxy-8-methoxy-flavone]	induced a G1 phase arrest	prolonged the G2M phase	activated	activated
O=C(/C=C/c1ccc(O)cc1)c1ccc(O)cc1O [isoliquiritigenin, 2',4,4'-trihydroxychalcone]	induced a G2M phase arrest	–	activated	activated
